# Measured values published in patent US20260317324A1, “BIFUNCTIONAL COMPOUNDS FOR DEGRADING BRAF VIA UBIQUITIN PROTEOSOME PATHWAY” (Nurix Therapeutics, Inc., priority 2023, published 2026).
# Target: T1, BRAF V600E (Homo sapiens, UniProt P15056, V600E)
# T1 construct: endogenous C-terminal HiBiT fusion tag on BRAF V600E allele; endogenous in cells; host or cells: A375 clone 1F10 (CRISPR-Cas9 knock-in of the HiBiT tag; parental A375 from ATCC)
# Experiment: BRAF HiBiT degradation assay, C-terminal HiBiT-tagged BRAF V600E A375 cells (clone 1F10), Nano-Glo HiBiT Lytic assay
# Format: cell-based
# Details: A375 (BRAF V600E); for DC50: DC50 at 50%: fitted conc. at Y=50; for Dmax: A-375, percentage protein degraded at maximal compound effect relative to DMSO
# Outline: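 Using CRISPR-engineered A375 cells that carry a C-terminal HiBiT tag on endogenous BRAF V600E, remaining protein was quantified by lytic luminescence relative to DMSO-treated cells, with wildtype A375 as the background control. DC50 denotes the concentration giving 50% degradation.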
# T1 sequence (P15056 whole entry V600E, the tested form may be a part): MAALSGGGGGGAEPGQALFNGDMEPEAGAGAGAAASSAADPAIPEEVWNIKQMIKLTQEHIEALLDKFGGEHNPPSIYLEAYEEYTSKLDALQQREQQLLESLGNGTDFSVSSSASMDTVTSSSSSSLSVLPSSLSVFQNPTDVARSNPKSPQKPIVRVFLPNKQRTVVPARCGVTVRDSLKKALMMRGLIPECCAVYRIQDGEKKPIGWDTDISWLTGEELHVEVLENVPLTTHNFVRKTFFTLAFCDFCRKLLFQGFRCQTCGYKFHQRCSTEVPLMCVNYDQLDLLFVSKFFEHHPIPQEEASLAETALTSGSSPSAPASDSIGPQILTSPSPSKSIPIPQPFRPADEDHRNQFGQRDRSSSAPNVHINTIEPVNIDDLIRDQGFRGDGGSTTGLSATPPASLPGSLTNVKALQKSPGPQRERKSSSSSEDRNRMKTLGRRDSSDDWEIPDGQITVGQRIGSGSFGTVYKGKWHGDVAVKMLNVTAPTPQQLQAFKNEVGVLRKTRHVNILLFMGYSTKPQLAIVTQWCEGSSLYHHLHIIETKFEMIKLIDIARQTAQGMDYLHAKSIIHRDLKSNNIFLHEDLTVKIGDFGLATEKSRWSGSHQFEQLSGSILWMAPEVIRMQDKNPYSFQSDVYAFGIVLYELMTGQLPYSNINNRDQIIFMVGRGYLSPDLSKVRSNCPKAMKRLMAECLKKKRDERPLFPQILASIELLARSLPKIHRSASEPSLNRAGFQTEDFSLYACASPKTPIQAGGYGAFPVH
DC50 [nM],Dmax [%],SMILES
50 to 500,30 to 70,"CCCS(=O)(=O)Nc1cccc(-c2nc(C(C)(C)C)sc2-c2ccnc(Nc3ccc(C4CCN(C(=O)CN5CCC6(CC5)CN(c5ccc7c(c5)C(=O)N(C5CCC(=O)NC5=O)C7=O)C6)CC4)cc3)n2)c1F (racemic) [Compound 153, Rac-N-[3-(2-tert-butyl-5-{2-[(4-{1-[2-(2-{2-[(3R)-2,6-dioxopiperidin-3-yl]-1,3-dioxo-2,3-dihydro-1H-isoindol-5-yl}-2,7-diazaspiro[3.5]nonan-7-yl)acetyl]piperidin-4-yl}phenyl)amino]pyrimidin-4-yl}-1,3-thiazol-4-yl)-2-fluorophenyl]propane-1-sulfonamide]"
50 to 500,30 to 70,"CCCS(=O)(=O)Nc1cccc(-c2nc(C(C)(C)C)sc2-c2ccnc(Nc3ccc(C4CCN(C(=O)C5CCN(c6ccc7c(c6)C(=O)N(C6CCC(=O)NC6=O)C7=O)CC5)CC4)cc3)n2)c1F (racemic) [Compound 155, Rac-N-(3-{2-tert-butyl-5-[2-({4-[1-(1-{2-[(3R)-2,6-dioxopiperidin-3-yl]-1,3-dioxo-2,3-dihydro-1H-isoindol-5-yl}piperidine-4-carbonyl)piperidin-4-yl]phenyl}amino)pyrimidin-4-yl]-1,3-thiazol-4-yl}-2-fluorophenyl)propane-1-sulfonamide]"
< 10,> 70,"CCCS(=O)(=O)Nc1cccc(-c2nc(C3CCN(C(=O)C4CN(C5CCN(c6ccc7c(c6)C(=O)N(C6CCC(=O)NC6=O)C7=O)CC5)C4)CC3)sc2-c2ccnc(N)n2)c1F (racemic) [Compound 242, Rac-N-{3-[5-(2-aminopyrimidin-4-yl)-2-{1-[1-(1-{2-[(3R)-2,6-dioxopiperidin-3-yl]-1,3-dioxo-2,3-dihydro-1H-isoindol-5-yl}piperidin-4-yl)azetidine-3-carbonyl]piperidin-4-yl}-1,3-thiazol-4-yl]-2-fluorophenyl}propane-1-sulfonamide]"
10 to 50,30 to 70,"CCCS(=O)(=O)Nc1cccc(-c2nc(C(C)(C)C)sc2-c2ccnc(Nc3ccc(C4CCN(C(=O)COc5ccc6c(c5)C(=O)N(C5CCC(=O)NC5=O)C6=O)CC4)cc3)n2)c1F (racemic) [Compound 176, Rac-N-[3-(2-tert-butyl-5-{2-[(4-{1-[2-({2-[(3R)-2,6-dioxopiperidin-3-yl]-1,3-dioxo-2,3-dihydro-1H-isoindol-5-yl}oxy)acetyl]piperidin-4-yl}phenyl)amino]pyrimidin-4-yl}-1,3-thiazol-4-yl)-2-fluorophenyl]propane-1-sulfonamide]"
< 10,30 to 70,"CCCS(=O)(=O)Nc1cccc(-c2nc(C3CCC4(CC3)CN(C(=O)CN3CCN(c5ccc6c(c5)C(=O)N(C5CCC(=O)NC5=O)C6=O)CC3)C4)sc2-c2ccnc(N)n2)c1F (racemic) [Compound 230, Rac-N-{3-[5-(2-aminopyrimidin-4-yl)-2-{2-[2-(4-{2-[(3R)-2,6-dioxopiperidin-3-yl]-1,3-dioxo-2,3-dihydro-1H-isoindol-5-yl}piperazin-1-yl)acetyl]-2-azaspiro[3.5]nonan-7-yl}-1,3-thiazol-4-yl]-2-fluorophenyl}propane-1-sulfonamide]"
50 to 500,30 to 70,"CCCS(=O)(=O)Nc1cccc(-c2nc(C3CCN(CC4CCN(C(=O)CN5CCc6cc(C7CCC(=O)NC7=O)ccc6C5)CC4)CC3)sc2-c2ccnc(N)n2)c1F (racemic) [Compound 226, Rac-N-{3-[5-(2-aminopyrimidin-4-yl)-2-(1-{[1-(2-{6-[(3R)-2,6-dioxopiperidin-3-yl]-1,2,3,4-tetrahydroisoquinolin-2-yl}acetyl)piperidin-4-yl]methyl}piperidin-4-yl)-1,3-thiazol-4-yl]-2-fluorophenyl}propane-1-sulfonamide]"
10 to 50,> 70,"CCCS(=O)(=O)Nc1cccc(-c2nc(C(C)(C)C)sc2-c2ccnc(Nc3ccc(C4CCN(C(=O)C5CCN(c6ccc(C7CCC(=O)NC7=O)cn6)CC5)CC4)cc3)n2)c1F (racemic) [Compound 156, Rac-N-(3-{2-tert-butyl-5-[2-({4-[1-(1-{5-[(3R)-2,6-dioxopiperidin-3-yl]pyridin-2-yl}piperidine-4-carbonyl)piperidin-4-yl]phenyl}amino)pyrimidin-4-yl]-1,3-thiazol-4-yl}-2-fluorophenyl)propane-1-sulfonamide]"
50 to 500,30 to 70,"CCCS(=O)(=O)Nc1cccc(-c2nc(C(C)(C)C)sc2-c2ccnc(Nc3ccc(C4CCN(C(=O)CC5CCN(C6CCN(c7ccc8c(c7)C(=O)N(C7CCC(=O)NC7=O)C8=O)CC6)CC5)CC4)cc3)n2)c1F (racemic) [Compound 158, Rac-N-[3-(2-tert-butyl-5-{2-[(4-{1-[2-(1′-{2-[(3R)-2,6-dioxopiperidin-3-yl]-1,3-dioxo-2,3-dihydro-1H-isoindol-5-yl}-[1,4′-bipiperidin]-4-yl)acetyl]piperidin-4-yl}phenyl)amino]pyrimidin-4-yl}-1,3-thiazol-4-yl)-2-fluorophenyl]propane-1-sulfonamide]"

# The remaining lines, values behind:
SMILES,DC50 [nM],Dmax [%]
"CCCS(=O)(=O)Nc1cccc(-c2nc(C(C)(C)C)sc2-c2ccnc(NCC(C)(C)C3CCN(CC4CCN(c5ccc([C@H]6CCC(=O)NC6=O)cc5)CC4)CC3)n2)c1F [Compound 144, N-[3-(2-tert-butyl-5-{2-[(2-{1-[(1-{4-[(3R)-2,6-dioxopiperidin-3-yl]phenyl}piperidin-4-yl)methyl]piperidin-4-yl}-2-methylpropyl)amino]pyrimidin-4-yl}-1,3-thiazol-4-yl)-2-fluorophenyl]propane-1-sulfonamide]",50 to 500,30 to 70
"CCCS(=O)(=O)Nc1cccc(-c2cn(C3CCN(C(=O)C4CCN(C(=O)C5CCN(c6ccc(C7CCC(=O)NC7=O)cc6)CC5)CC4)CC3)nc2-c2ccncc2)c1F (racemic) [Compound 9, Rac-N-[3-(1-{1-[1-(1-{4-[(3R)-2,6-dioxopiperidin-3-yl]phenyl}piperidine-4-carbonyl)piperidine-4-carbonyl]piperidin-4-yl}-3-(pyridin-4-yl)-1H-pyrazol-4-yl)-2-fluorophenyl]propane-1-sulfonamide]",50 to 500,> 70
"CCCS(=O)(=O)Nc1cccc(-c2nc(C(C)(C)C)sc2-c2ccnc(Nc3cccc(C4CCN(C(=O)[C@@H]5CCN(c6ccc(C7CCC(=O)NC7=O)cn6)C5)CC4)c3)n2)c1F (mixture of isomers) [Compound 102, N-[3-(2-tert-butyl-5-{2-[(3-{1-[(3R)-1-{5-[(3RS)-2,6-dioxopiperidin-3-yl]pyridin-2-yl}pyrrolidine-3-carbonyl]piperidin-4-yl}phenyl)amino]pyrimidin-4-yl}-1,3-thiazol-4-yl)-2-fluorophenyl]propane-1-sulfonamide]",10 to 50,30 to 70
"CCCS(=O)(=O)Nc1cccc(-c2nc(C(C)(C)C)sc2-c2ccnc(Nc3cnn(CC4CCN(CC[C@@H]5CCN(c6ccc(C7CCC(=O)NC7=O)cn6)C5)CC4)c3)n2)c1F (mixture of isomers) [Compound 81, N-(3-{2-tert-butyl-5-[2-({1-[(1-{2-[(3R)-1-{5-[(3RS)-2,6-dioxopiperidin-3-yl]pyridin-2-yl}pyrrolidin-3-yl]ethyl}piperidin-4-yl)methyl]-1H-pyrazol-4-yl}amino)pyrimidin-4-yl]-1,3-thiazol-4-yl}-2-fluorophenyl)propane-1-sulfonamide]",10 to 50,> 70
"CCCS(=O)(=O)Nc1cccc(-c2nc(C(C)(C)C)sc2-c2ccnc(Nc3ccc(N4CCN(CC5CCN(c6ccc([C@@H]7CCC(=O)NC7=O)cc6)CC5)CC4)c(F)c3)n2)c1F [Compound 88, N-[3-(2-tert-butyl-5-{2-[(4-{4-[(1-{4-[(3S)-2,6-dioxopiperidin-3-yl]phenyl}piperidin-4-yl)methyl]piperazin-1-yl}-3-fluorophenyl)amino]pyrimidin-4-yl}-1,3-thiazol-4-yl)-2-fluorophenyl]propane-1-sulfonamide]",10 to 50,30 to 70
"CCCS(=O)(=O)Nc1cccc(-c2nc(C(C)(C)C)sc2-c2ccnc(Nc3cccc(OC4CCN(C(=O)CN5CCN(c6cc(C7CCC(=O)NC7=O)ccn6)CC5)CC4)c3)n2)c1F (racemic) [Compound 93, Rac-N-{3-[2-tert-butyl-5-(2-{[3-({1-[2-(4-{4-[(3R)-2,6-dioxopiperidin-3-yl]pyridin-2-yl}piperazin-1-yl)acetyl]piperidin-4-yl}oxy)phenyl]amino}pyrimidin-4-yl)-1,3-thiazol-4-yl]-2-fluorophenyl}propane-1-sulfonamide]",10 to 50,30 to 70
"CCCS(=O)(=O)Nc1cccc(-c2nc(C(C)(C)C)sc2-c2ccnc(NC3CC4(C3)CN(C(=O)CCCCCc3ccc5c(c3)C(=O)N(C3CCC(=O)NC3=O)C5)C4)n2)c1F (racemic) [Compound 150, Rac-N-{3-[2-tert-butyl-5-(2-{[2-(6-{2-[(3R)-2,6-dioxopiperidin-3-yl]-3-oxo-2,3-dihydro-1H-isoindol-5-yl}hexanoyl)-2-azaspiro[3.3]heptan-6-yl]amino}pyrimidin-4-yl)-1,3-thiazol-4-yl]-2-fluorophenyl}propane-1-sulfonamide]",50 to 500,30 to 70
"CCCS(=O)(=O)Nc1cccc(-c2cn(-c3ccc(N4CCN(CC5(C)CCN(c6ccc(C7CCC(=O)NC7=O)cn6)CC5)CC4)cc3)nc2-c2ccncc2)c1F (racemic) [Compound 17, Rac-N-{3-[1-(4-{4-[(1-{5-[(3R)-2,6-dioxopiperidin-3-yl]pyridin-2-yl}-4-methylpiperidin-4-yl)methyl]piperazin-1-yl}phenyl)-3-(pyridin-4-yl)-1H-pyrazol-4-yl]-2-fluorophenyl}propane-1-sulfonamide]",50 to 500,30 to 70
